# From ChEMBL document CHEMBL1201862, “PubChem BioAssay data set” (2004)
#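 In this assay, cells in 96-well plates receive the compound at five concentrations for 48 hours. Endpoints are linearly interpolated between the surrounding concentrations. The concentration for 50% growth inhibition is given as GI50.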 The source made the active and inactive calls. No stated cut-off is given here; in the data, active = GI50 up to about 1.1 µM and inactive = higher.
# How the values were obtained:
# Assay in all cases: inhibition of tumour cell growth, NCI panel, 48 h
# [1] = test system: HCC 2998
# [2] = test system: HCT-116
# [3] = test system: HL-60
# [4] = test system: HOP-62
# [5] = test system: HT-29
# [6] = test system: KM12
# [7] = test system: MCF7
# [8] = test system: MDA-MB-231
# [9] = test system: MOLT-4
# [10] = test system: Malme-3M
# [11] = test system: NCI-H522
# [12] = test system: NCI/ADR-RES
# [13] = test system: OVCAR-5
# [14] = test system: PC-3
# [15] = test system: RXF 393
# [16] = test system: SF-268
# [17] = test system: SK-MEL-28
# [18] = test system: SN12C
# [19] = test system: SW-620
# [20] = test system: HOP-92
Compound,GI50 [1],GI50 [2],GI50 [3],GI50 [4],GI50 [5],GI50 [6],GI50 [7],GI50 [8],GI50 [9],GI50 [10],GI50 [11],GI50 [12],GI50 [13],GI50 [14],GI50 [15],GI50 [16],GI50 [17],GI50 [18],GI50 [19],GI50 [20]
CC(=O)/N=C1\N/C(=C\c2ccc(Cl)cc2)C(=O)N1/C=C1\C(=O)Oc2ccccc2C1=O,> 100 µM (inactive),> 100 µM (inactive),> 100 µM (inactive),> 100 µM (inactive),> 100 µM (inactive),> 100 µM (inactive),> 100 µM (inactive),> 100 µM (inactive),> 100 µM (inactive),> 100 µM (inactive),78.9 µM (inactive),> 100 µM (inactive),> 100 µM (inactive),> 100 µM (inactive),> 100 µM (inactive),45.9 µM (inactive),> 100 µM (inactive),> 100 µM (inactive),> 100 µM (inactive),–
CC(C)(NO)/C(=N\O)c1ccco1,> 100 µM (inactive),> 100 µM (inactive),–,> 100 µM (inactive),> 100 µM (inactive),> 100 µM (inactive),> 100 µM (inactive),> 100 µM (inactive),20.1 µM (inactive),> 100 µM (inactive),–,> 100 µM (inactive),> 100 µM (inactive),> 100 µM (inactive),> 100 µM (inactive),> 100 µM (inactive),> 100 µM (inactive),> 100 µM (inactive),> 100 µM (inactive),> 100 µM (inactive)
CC(C)C(/C=C/c1ccc(Cl)cc1)=N\NC(=S)NN,44.2 µM (inactive),2.99 µM (inactive),4.99 µM (inactive),31.6 µM (inactive),23.3 µM (inactive),23.8 µM (inactive),15.6 µM (inactive),> 100 µM (inactive),4.15 µM (inactive),25.2 µM (inactive),6.58 µM (inactive),17.7 µM (inactive),30.9 µM (inactive),36.5 µM (inactive),15 µM (inactive),7.57 µM (inactive),39.7 µM (inactive),14.1 µM (inactive),14.1 µM (inactive),–
COc1ccc(C2C3=C(Nc4ncnn42)c2ccccc2OC3c2ccccc2)cc1 (centres undefined),–,18.9 µM (inactive),2.27 µM (inactive),> 100 µM (inactive),–,14.6 µM (inactive),13.5 µM (inactive),49.1 µM (inactive),6.27 µM (inactive),–,–,47.8 µM (inactive),89.1 µM (inactive),27.4 µM (inactive),1.14 µM (inactive),42.6 µM (inactive),–,> 100 µM (inactive),41.7 µM (inactive),–
COc1ccc(/N=N/C(=O)NC(CC(C)C)C(=O)NC(C)C(=O)O)cc1 (centres undefined),4.46 µM (inactive),> 34.4 µM (inactive),6.22 µM (inactive),> 59.6 µM (inactive),> 40 µM (inactive),29 µM (inactive),27.5 µM (inactive),> 23.4 µM (inactive),4.22 µM (inactive),29.2 µM (inactive),–,> 67.9 µM (inactive),> 100 µM (inactive),4.72 µM (inactive),> 100 µM (inactive),> 24.3 µM (inactive),17.1 µM (inactive),> 20.4 µM (inactive),16.9 µM (inactive),> 100 µM (inactive)
CC1(C)[C@@H]2C[C@H]1C(Cc1ccc(C[C@H]3c4cc(-c5ccccn5)ncc4[C@H]4C[C@@H]3C4(C)C)cc1)c1cc(-c3ccccn3)ncc12 (some centres undefined),1.74 µM (inactive),0.75 µM (active),0.518 µM (active),0.538 µM (active),1.44 µM (inactive),2.18 µM (inactive),1.89 µM (inactive),5.35 µM (inactive),0.431 µM (active),4.53 µM (inactive),7.14 µM (inactive),2.71 µM (inactive),1.46 µM (inactive),0.587 µM (active),3.58 µM (inactive),0.865 µM (active),3.54 µM (inactive),0.902 µM (active),3.46 µM (inactive),–
Cc1cc2c(nn1)CCc1c-2no[n+]1[O-],> 100 µM (inactive),> 100 µM (inactive),–,> 100 µM (inactive),> 100 µM (inactive),> 100 µM (inactive),> 100 µM (inactive),> 100 µM (inactive),> 100 µM (inactive),> 100 µM (inactive),> 100 µM (inactive),> 100 µM (inactive),> 100 µM (inactive),> 100 µM (inactive),22.1 µM (inactive),> 100 µM (inactive),> 100 µM (inactive),> 100 µM (inactive),> 100 µM (inactive),–
Cc1ccc(S(=O)(=O)ON2C(=O)c3cccc4cc([N+](=O)[O-])cc(c34)C2=O)cc1,23.8 µM (inactive),45.3 µM (inactive),–,> 100 µM (inactive),28.6 µM (inactive),32.6 µM (inactive),33.7 µM (inactive),56.2 µM (inactive),28.6 µM (inactive),44.2 µM (inactive),56.2 µM (inactive),> 100 µM (inactive),> 100 µM (inactive),> 100 µM (inactive),44.3 µM (inactive),79.3 µM (inactive),> 100 µM (inactive),81.3 µM (inactive),66.1 µM (inactive),50.5 µM (inactive)
CCOC(=O)NC(Nc1ncn(C(NC(=O)OCC)(C(F)(F)F)C(F)(F)F)n1)(C(F)(F)F)C(F)(F)F,29.9 µM (inactive),> 100 µM (inactive),> 100 µM (inactive),> 100 µM (inactive),> 100 µM (inactive),> 100 µM (inactive),> 100 µM (inactive),> 100 µM (inactive),> 100 µM (inactive),> 100 µM (inactive),–,> 100 µM (inactive),> 100 µM (inactive),> 100 µM (inactive),> 100 µM (inactive),> 100 µM (inactive),> 100 µM (inactive),> 100 µM (inactive),> 100 µM (inactive),> 100 µM (inactive)
O=C(Cc1ccccc1)N/N=C1\C(=O)Nc2ccccc21,> 100 µM (inactive),> 100 µM (inactive),–,> 100 µM (inactive),> 100 µM (inactive),> 100 µM (inactive),49.8 µM (inactive),18.8 µM (inactive),> 100 µM (inactive),> 100 µM (inactive),48.1 µM (inactive),52.4 µM (inactive),> 100 µM (inactive),70.5 µM (inactive),> 100 µM (inactive),31.6 µM (inactive),–,48.5 µM (inactive),–,–
O=C(CN1C(=O)CC(c2ccccc2)(c2ccccc2)C1=O)N1CCN(CCO)CC1,> 100 µM (inactive),> 100 µM (inactive),–,> 100 µM (inactive),> 100 µM (inactive),> 100 µM (inactive),> 100 µM (inactive),> 100 µM (inactive),> 100 µM (inactive),–,> 100 µM (inactive),> 100 µM (inactive),> 100 µM (inactive),> 100 µM (inactive),> 100 µM (inactive),> 100 µM (inactive),> 100 µM (inactive),> 100 µM (inactive),> 100 µM (inactive),> 100 µM (inactive)
CC(=O)Oc1ccc2cc(-c3ccc(OC(C)=O)c(OC(C)=O)c3)c(=O)oc2c1,> 100 µM (inactive),60.3 µM (inactive),30.5 µM (inactive),> 100 µM (inactive),> 100 µM (inactive),32.8 µM (inactive),> 100 µM (inactive),> 100 µM (inactive),> 100 µM (inactive),> 100 µM (inactive),44.4 µM (inactive),40.7 µM (inactive),> 100 µM (inactive),84.5 µM (inactive),–,63.2 µM (inactive),81.7 µM (inactive),> 100 µM (inactive),> 100 µM (inactive),43.4 µM (inactive)
COc1cccc2c1CCc1c(-c3ccc(F)cc3)cc(-c3ccc4ccccc4n3)nc1-2,–,> 100 µM (inactive),–,> 100 µM (inactive),> 100 µM (inactive),> 100 µM (inactive),> 100 µM (inactive),> 100 µM (inactive),> 100 µM (inactive),> 100 µM (inactive),> 100 µM (inactive),> 100 µM (inactive),> 100 µM (inactive),> 100 µM (inactive),> 100 µM (inactive),> 100 µM (inactive),–,–,> 100 µM (inactive),> 100 µM (inactive)
Nc1nc(N)nc(-c2cnc3ccccc3c2)n1,> 100 µM (inactive),> 100 µM (inactive),–,> 100 µM (inactive),–,> 100 µM (inactive),> 100 µM (inactive),86.7 µM (inactive),20.7 µM (inactive),> 100 µM (inactive),> 100 µM (inactive),> 100 µM (inactive),39.5 µM (inactive),> 100 µM (inactive),94.2 µM (inactive),> 100 µM (inactive),> 100 µM (inactive),> 100 µM (inactive),> 100 µM (inactive),73.5 µM (inactive)
O=C1/C(=c2\s/c(=C\c3ccccc3)c(=O)n2-c2ccccc2)SC(=S)N1c1ccccc1,70.5 µM (inactive),58.9 µM (inactive),> 100 µM (inactive),–,> 100 µM (inactive),71.8 µM (inactive),53.5 µM (inactive),20.5 µM (inactive),45.4 µM (inactive),28.7 µM (inactive),–,28 µM (inactive),> 100 µM (inactive),55 µM (inactive),34 µM (inactive),41.8 µM (inactive),63.1 µM (inactive),35.6 µM (inactive),93.3 µM (inactive),33 µM (inactive)
